The record followed here is US20050256093A1, “Branched polyamine steroid derivatives” (Leo Pharma, priority 2002, published 2005).

Format in all cases: cell-based
In assay [1] the test system is Corynebacterium xerosis FF. The assay can be described thus: agar cup assay MIC. The source says: (§1) In vitro investigations have shown a significant potency of the compounds of the invention against a large number of bacteria including gram-positive and gram-negative strains (Staphyiococci, Streptococci, Corynebacteriae, Mycobacteriae, Proteus, Propionibacterium, Pseudomonas, Neisseriae, E. coli) and fungal strains (Candida and Aspergillus). […] In addition, the studies of post-antibiotic effects point towards a strong bactericidal effect of the compounds of the invention. […] Minimum Inhibitory Concentrations were estimated using an agar cup assay. Bacterial strains were obtained from the American Type Culture Collection or from our own collection of clinical isolates. Colonies from fresh overnight culture were resuspended in saline water to 0.5 MacFarland corresponding to 10^8 CFU/ml. 200 ml Mueller Hinton agar (Oxoid) at 48° C. was inoculated at a concentration of 10^6 CFU/ml and poured into square petri dishes (245×245 mm). Holes were made in the inoculated plates and 200 μl of the compounds to be tested were disposed into each hole. A dilution series of compounds contained six dilution between 0.25 and 125 μg/ml. For Streptococci Mueller Hinton agar was supplemented with 5% sheep blood. Plates were appropriately incubated and zone diameters of growth inhibition were measured using an electronic caliper. MICs were estimated using a linear regression curve between the zone diameter of growth inhibition and the log2 of the sample concentration. The microbiological assay set up is in agreement with the European Pharmacopoeia 3rd edition (1997). The inhibition zones are function of the concentration of the compounds used. Known antibiotics including fusidic acid (FA), mupirocin and linezolid were used as reference compounds.

For assay [2], the system named is S. aureus CJ234R. The assay can be described thus: agar cup assay MIC. Conditions: Staphylococcus aureus; S. aureus CJ234R (MRSA, Rifampicin resistant).
Source text: as §1

The test system of assay [3] is Candida albicans ZA. The experiment in a line: agar cup assay MIC.
Source text: as §1

Assay [4] relates to Propionibacterium acnes FN33. The assay can be described thus: agar cup assay MIC. Conditions: Cutibacterium acnes.
Source text: as §1

Assay [5] deals with S. aureus N6. The experiment in a line: agar cup assay MIC. Particulars: Staphylococcus aureus; S. aureus N6 (Fus. resistant).
Source text: as §1

In assay [6] the test system is Saccaromyces cervisiae ZZ7. The assay can be described thus: agar cup assay MIC. Particulars: Saccharomyces cerevisiae.
Source text: as §1

Assay [7] concerns Streptococcus faecium EI19. The assay can be described thus: agar cup assay MIC. Particulars: Enterococcus faecium; Streptococcus faecium EI19 (Penicillin resistant); agar with 5% sheep blood.
Source text: as §1

Assay [8] deals with Asbergillus niger ZM35. The assay can be described thus: agar cup assay MIC. Conditions: Aspergillus niger.
Source text: as §1

Assay [9] relates to S. epidermis CK5. The experiment in a line: agar cup assay MIC. Particulars: Staphylococcus epidermidis.
Source text: as §1

In assay [10] the test system is E. coli HA165. The experiment in a line: agar cup assay MIC. Particulars: Escherichia coli.
Source text: as §1

The subject of assay [11] is S. aureus CJ234F. The experiment in a line: agar cup assay MIC. Conditions: Staphylococcus aureus; S. aureus CJ234F (MRSA, Fus. resistant).
Source text: as §1

The subject of assay [12] is S. aureus CJ200. The experiment in a line: agar cup assay MIC. Conditions: Staphylococcus aureus.
Source text: as §1

In assay [13] the test system is S. aureus CJ247. The experiment in a line: agar cup assay MIC. Particulars: Staphylococcus aureus.
Source text: as §1

For assay [14], the system named is Streptococcus pyogenes EC88. The assay can be described thus: agar cup assay MIC. Particulars: agar with 5% sheep blood.
Source text: as §1

Assay [15] relates to Pseudomonas aeruginosa BA17. The assay can be described thus: agar cup assay MIC.
Source text: as §1

The subject of assay [16] is S. aureus. The experiment in a line: Minimum Bactericidal Concentration (MBC), broth culture and colony count. Conditions: staphylococci, LB broth, aerobic; concentration twice that of MIC; FIG. 1. As to the method:
(§2) 10^6 bacteria were inoculated in 3 ml growth media (S. aureus—LB broth, S. pyogenes—TH broth) containing approximately 2×MIC, 1×MIC, 0.5×MIC and O×MIC respectively of compound 102 (MIC being relative to the strain being tested). S. aureus strains were grown aerobically, and S. pyogenes anaerobically in a carbon dioxide enriched incubator. Samples were diluted and plated on LA-plates (S. aureus) or blood-agar plates (S. pyogenes) followed by 24 hours incubation at 37° C. before being scored for colonies.

For assay [17], the system named is S. pyogenes. The description is as above. Conditions: streptococci, TH broth, anaerobic; concentration twice that of MIC; FIG. 2. The method, then: as §2

Structures are written as SMILES. ≈ marks a conversion by molar mass, not a printed value.

The term MIC denotes the least concentration at which growth counts as inhibited. Lower therefore signals inhibition by little substance. Take `CC(C)CCCC(C(=O)NCCN(CCN)CCN)[C@@H]1CC[C@@]2(C)C1C[C@@H](O)C1[C@@]3(C)CC[C@@H](O)[C@@H](C)C3CC[C@@]12C` (stereo partly drawn) [Compound 103, 21-N-{2′-[bis(2′-aminoethyl)amino]ethyl}-16-desacetoxy-17R,20S,24,25-tetrahydrofusid-21-amide]: the MIC in assay [1] was found to be 1 µg/mL (≈ 1.69 µM); in [2], 1 µg/mL (≈ 1.69 µM); in [3], 1 µg/mL (≈ 1.69 µM); in assay [4] it was 1 µg/mL (≈ 1.69 µM); in assay [5], 1 µg/mL (≈ 1.69 µM); in assay [6] it was 4 µg/mL (≈ 6.77 µM). In addition, the MIC is 16 µg/mL (≈ 27.1 µM) in [7]; above 125 µg/mL in assay [8]; 1 µg/mL (≈ 1.69 µM) in assay [9]; 4 µg/mL (≈ 6.77 µM) in assay [10]; 1 µg/mL (≈ 1.69 µM) in assay [11]; 1 µg/mL (≈ 1.69 µM) in assay [12]. Further, the MIC in assay [13] was 1 µg/mL (≈ 1.69 µM); in [14], 4 µg/mL (≈ 6.77 µM); in assay [15], 16 µg/mL (≈ 27.1 µM).
For `CC(=O)O[C@H]1C[C@@]2(C)C(C[C@@H](O)C3[C@@]4(C)CC[C@@H](O)[C@@H](C)C4CC[C@@]32C)[C@@H]1[C@H](CCCC(C)C)C(=O)NCCN(CCN)CCN` (stereo partly drawn) [Compound 101, 21-N-{2′-[bis(2′-aminoethyl)amino]ethyl}-17R,20S,24,25-tetrahydrofusid-21-amide], the MIC in [1] turned out to be 4 µg/mL (≈ 6.16 µM); in assay [2], 4 µg/mL (≈ 6.16 µM); in [3] it was 16 µg/mL (≈ 24.7 µM); in [4], 4 µg/mL (≈ 6.16 µM); in assay [5], 4 µg/mL (≈ 6.16 µM); in [6], 4 µg/mL (≈ 6.16 µM). The MIC in [7] worked out at 16 µg/mL (≈ 24.7 µM); in assay [8] it was 4 µg/mL (≈ 6.16 µM); in [9], 4 µg/mL (≈ 6.16 µM); in [10], 16 µg/mL (≈ 24.7 µM); in assay [11], 4 µg/mL (≈ 6.16 µM); in [12], 4 µg/mL (≈ 6.16 µM). Besides, the MIC in assay [13] came to 4 µg/mL (≈ 6.16 µM); in assay [14], 16 µg/mL (≈ 24.7 µM); in [15], 64 µg/mL (≈ 98.6 µM).
As for `CC(C)CCCC(C(=O)NCCN(CCN)CCN)C1=C2C[C@@H](O)C3[C@@]4(C)CC[C@@H](O)[C@@H](C)C4CC[C@]3(C)[C@@]2(C)CC1` (some centres unmarked) [Compound 104, 21-N-{2′-[bis(2′-aminoethyl)amino]ethyl}-13(17)-en-17,20,24,25-tetrahydrofusidan-21-carboxamide], the MIC in assay [1], in assay [2], in assay [3], in [4], in assay [5] and in assay [6] was 16 µg/mL (≈ 27.2 µM) in each case. Also, the MIC in [7] is above 64 µg/mL; in [8], above 64 µg/mL; in assay [9] it was 16 µg/mL (≈ 27.2 µM); in [10] it was above 64 µg/mL; in assay [11] it was 16 µg/mL (≈ 27.2 µM); in assay [12], 16 µg/mL (≈ 27.2 µM). Also, the MIC is 16 µg/mL (≈ 27.2 µM) in assay [13], 16 µg/mL (≈ 27.2 µM) in [14] and above 64 µg/mL in assay [15].
`CC(=O)O[C@H]1C[C@@]2(C)C(C[C@@H](O)C3[C@@]4(C)CC[C@H](O)[C@@H](C)C4CC[C@@]32C)[C@@H]1[C@H](CCCC(C)C)C(=O)NCCN(CCN)CCN` (some centres unmarked) [Compound 105]: the MIC in [1] worked out at 16 µg/mL (≈ 24.7 µM); in assay [2], 16 µg/mL (≈ 24.7 µM); in assay [3], 16 µg/mL (≈ 24.7 µM); in assay [4], 16 µg/mL (≈ 24.7 µM); in assay [5], 16 µg/mL (≈ 24.7 µM); in assay [6] it was 64 µg/mL (≈ 98.6 µM). Besides, the minimum inhibitory concentration (MIC) in assay [7] was found to be 64 µg/mL (≈ 98.6 µM); in [8] it was 64 µg/mL (≈ 98.6 µM); in assay [9] it was 16 µg/mL (≈ 24.7 µM); in assay [10], 64 µg/mL (≈ 98.6 µM); in assay [11], 16 µg/mL (≈ 24.7 µM); in [12], 16 µg/mL (≈ 24.7 µM). The MIC in assay [13] is 16 µg/mL (≈ 24.7 µM); in assay [14], 64 µg/mL (≈ 98.6 µM); in [15], 16 µg/mL (≈ 24.7 µM).
Take `CC(=O)O[C@H]1C[C@@]2(C)C(CCC3[C@@]4(C)CC[C@@H](O)[C@@H](C)C4CC[C@@]32C)[C@@H]1[C@H](CCCC(C)C)C(=O)NCCN(CCN)CCN` (stereo partly drawn) [Compound 102, 21-N-{2′-[bis(2′-aminoethyl)amino]ethyl}-11-desoxy-17R,20S,24,25-tetrahydrofusid-21-amide]: the “bactericidal impact (MBC)” value in assay [16] and in assay [17] was “strong bacterial killing” each time. Moreover, the MIC came to 4 µg/mL (≈ 6.32 µM) in assay [1]; 4 µg/mL (≈ 6.32 µM) in [2]; 4 µg/mL (≈ 6.32 µM) in assay [3]; 4 µg/mL (≈ 6.32 µM) in assay [4]; 4 µg/mL (≈ 6.32 µM) in [5]; 16 µg/mL (≈ 25.3 µM) in [6]. Also, the MIC in assay [7] was 16 µg/mL (≈ 25.3 µM); in assay [8] it was 4 µg/mL (≈ 6.32 µM); in [9] it was 4 µg/mL (≈ 6.32 µM); in assay [10] it was 16 µg/mL (≈ 25.3 µM); in assay [11], 4 µg/mL (≈ 6.32 µM); in [12], 4 µg/mL (≈ 6.32 µM). The MIC in assay [13] amounted to 4 µg/mL (≈ 6.32 µM); in assay [14], 16 µg/mL (≈ 25.3 µM); in [15], 16 µg/mL (≈ 25.3 µM).
